Source: Sander's compilation of Henry's law constants (doi:10.1021/je700418a)

Assay: Henry solubility constant Hcp at 298.15 K (mol/(m3 Pa))
Conditions: reference: Helburn et al. (2008)

Henry solubility constant Hcp | Compound
8e-05 | C1CCCCC1 [cyclohexane]
0.029 | CC(C)=CCCC(C)=CC#N [3,7-dimethyl-2,6-octadienenitrile]
0.0032 | ClCCl [dichloromethane]
0.039 | CC(C)C12CCC(C)(CC1)O2 [1-methyl-4-(1-methylethyl)-7-oxabicyclo[2.2.1]heptane]
0.0043 | CCCCCCCCCC=O [decanal]
0.68 | CC(C)O [2-propanol]
0.00026 | C=C(C)[C@H]1CC=C(C)CC1 [(R)-1-methyl-4-(1-methylethenyl)-cyclohexene]

Compound | Henry solubility constant Hcp
CCOCC [diethyl ether] | 0.095
Cc1ccccc1 [methylbenzene] | 0.0014
ClC=C(Cl)Cl [trichloroethene] | 0.00094
CCCCOC(C)=O [butyl ethanoate] | 0.021
